# Test results reported in US20040096851A1, “ABCA1 PEST domain-related compositions and methods” (priority 2002, published 2004).
# B1: μ-calpain: Purified μ-calpain protease from Calbiochem-Novabiochem (protein, UniProt P07384 2-714; P04632 1-268, looked up)
# Calpain-1 catalytic subunit: SEEIITPVYCTGVSAQVQKQRARELGLGRHENAIKYLGQDYEQLRVRCLQSGTLFRDEAFPPVPQSLGYKDLGPNSSKTYGIKWKRPTELLSNPQFIVDGATRTDICQGALGDCWLLAAIASLTLNDTLLHRVVPHGQSFQNGYAGIFHFQLWQFGEWVDVVVDDLLPIKDGKLVFVHSAEGNEFWSALLEKAYAKVNGSYEALSGGSTSEGFEDFTGGVTEWYELRKAPSDLYQIILKALERGSLLGCSIDISSVLDMEAITFKKLVKGHAYSVTGAKQVNYRGQVVSLIRMRNPWGEVEWTGAWSDSSSEWNNVDPYERDQLRVKMEDGEFWMSFRDFMREFTRLEICNLTPDALKSRTIRKWNTTLYEGTWRRGSTAGGCRNYPATFWVNPQFKIRLDETDDPDDYGDRESGCSFVLALMQKHRRRERRFGRDMETIGFAVYEVPPELVGQPAVHLKRDFFLANASRARSEQFINLREVSTRFRLPPGEYVVVPSTFEPNKEGDFVLRFFSEKSAGTVELDDQIQANLPDEQVLSEEEIDENFKALFRQLAGEDMEISVKELRTILNRIISKHKDLRTKGFSLESCRSMVNLMDRDGNGKLGLVEFNILWNRIRNYLSIFRKFDLDKSGSMSAYEMRMAIESAGFKLNKKLYELIITRYSEPDLAVDFDNFVCCLVRLETMFRFFKTLDTDLDGVVTFDLFKWLQLTMFA
# Calpain small subunit 1: MFLVNSFLKGGGGGGGGGGGLGGGLGNVLGGLISGAGGGGGGGGGGGGGGGGGGGGTAMRILGGVISAISEAAAQYNPEPPPPRTHYSNIEANESEEVRQFRRLFAQLAGDDMEVSATELMNILNKVVTRHPDLKTDGFGIDTCRSMVAVMDSDTTGKLGFEEFKYLWNNIKRWQAIYKQFDTDRSGTICSSELPGAFEAAGFHLNEHLYNMIIRRYSDESGNMDFDNFISCLVRLDAMFRAFKSLDKDGTGQIQVNIQEWLQLTMYS
# Tests used:
# ABCA1 protein [1] = test: ABCA1 protein level in mouse peritoneal macrophages (Western); assay type: cell-based; details: for ABCA1 protein level, effect in words: mouse peritoneal macrophages, 3 hours, apoA-I 10 μg/ml, HDL2 50 μg protein/ml, MβCD 1 mM 5 min, apigenin 40 μM
# Procedure: Cellular lipid efflux assays, apoA-I cell association, and chemical cross-linking: The assays were carried out as in (14). Generally, 293 cells were labeled by culturing overnight in media containing either [^3H]cholesterol, for cholesterol efflux, or [^3H]choline, for phospholipid efflux. The next day, cells were washed with fresh media before or after treatment as indicated, and then apoA-I was added as acceptor and incubated for the indicated period before the media and cells were collected for analysis. Mouse peritoneal macrophage cells were isolated from male mice by peritoneal lavage with PBS 3 days after intraperitoneal injection with 1 ml of 3.85% thioglycollate. The cells were labeled with […] [^3H]cholesterol overnight in DMEM and 0.2% BSA supplemented with 50 μg/ml acetylated LDL plus LXR/RXR ligands 22(R)-hydroxycholesterol and 9-cis retinoic acid (both 10 μM). After labeling, cells were washed and efflux was carried out with 10 μg/ml apoA-I for 3 hours. Then, cells and medium were collected for analysis. Cholesterol efflux was expressed as the percentage of the radioactivity released from the cells into the medium, relative to the total radioactivity in cells plus medium. For apoA-I cell association, cells were incubated with 0.2 μg/ml [^125 I]apoA-I in 0.2% BSA and DMEM for 1 hour at 37° C. After being washed three times with fresh media, cells were lysed with 0.1% SDS and 0.1N NaOH lysis buffer, and radioactivity was determined by a gamma counter.
# (§1) Immunoprecipitation and immunoblot analysis of ABCA1: For immunoblot analysis of ABCA1, ABCA1-FLAG, and ABCA1delPEST-FLAG, transfected HEK293 cells, peritoneal macrophages, or primary hepatocytes were washed and scraped in PBS and lysed in RIPA buffer (10 mM Tris-HCl [pH 7.3], 1 mM MgCl2, 1.0% Nonidet P-40, 0.5% sodium deoxycholate, and 5 mM EDTA in the presence of protease inhibitors as follows: 0.5 μg/ml leupeptin, 1 μg/ml aprotinin, and 1 μg/ml pepstatin A) (Roche Molecular Biochemicals, Indianapolis, Ind., USA). Postnuclear supernatants containing the indicated amounts of protein were subjected to Western analysis using an anti-ABCA1 antiserum or anti-FLAG M2 antibody and chemiluminescence detection. The relative intensities of the bands were determined by densitometry. For cell surface ABCA1 analysis, cells were first biotinylated with 0.5 mg/ml EZ-Link Sulfo-NHS-SS-Biotin (Pierce Chemical Co., Rockford, Ill., USA) at 4° C. for 30 minutes. Then cells were lysed with RIPA buffer at 4° C. After centrifugation, the supernatant of cell lysates was incubated with anti-FLAG agarose beads overnight at 4° C. Following centrifugation and washing, the collected agarose beads were subjected to SDS-PAGE sample buffer with 100 mM 2-mercaptoethanol. The total or […] ABCA1 was detected by Western blot using either anti-FLAG antibody or streptavidin-horseradish peroxidase.
# ABCA1 phosphorylation = test: Phosphorylation of ABCA1 in cells; assay type: cell-based
# ABCA1 [2] = details: macrophages loaded with acetyl-LDL and cholesterol ester; cited from earlier work
# ABCA1 protein [3] = test: ABCA1 protein turnover and level in transiently transfected 293 cells (metabolic labeling, Western, cell surface biotinylation); assay type: cell-based, human
# From the text: Plasmid constructs and cell transfection: ABCA1-FLAG was constructed as described (18). ABCA1delPEST was based on ABCA1-FLAG. Using PCR, ABCA1delPEST was constructed by deleting a nucleotide sequence that encodes mouse ABCA1 amino acids 1283-1306 and was confirmed by sequencing. HEK293 cells, in 12- or 24-well collagen-coated plates, were transiently transfected with various plasmid constructs at indicated DNA concentrations with Lipofectamine 2000 (Invitrogen Corp., San Diego, Calif., USA) at 37° C. overnight (20 hours). A construct expressing green fluorescence protein (GFP) was routinely used to visually monitor transfection efficiency (i.e., the percentage of cells expressing GFP). The transfection efficiency of 293 cells was in the range of 50-80% of cells. […] In addition to performing multiple replicates within each experiment, all experiments were repeated on multiple separate occasions to confirm reproducibility of results.
# as §1
# ABCA1 [4] = biological target: T1, ABCA1 (Mus musculus, UniProt P41233); test: Calpain-catalyzed proteolysis of metabolically labeled ABCA1 in digitonin-permeabilized 293 cells; assay type: cell-based; set-up: expressed in transfected cells; host or cells: 293 cells, digitonin-permeabilized
# T1 sequence (P41233 whole entry): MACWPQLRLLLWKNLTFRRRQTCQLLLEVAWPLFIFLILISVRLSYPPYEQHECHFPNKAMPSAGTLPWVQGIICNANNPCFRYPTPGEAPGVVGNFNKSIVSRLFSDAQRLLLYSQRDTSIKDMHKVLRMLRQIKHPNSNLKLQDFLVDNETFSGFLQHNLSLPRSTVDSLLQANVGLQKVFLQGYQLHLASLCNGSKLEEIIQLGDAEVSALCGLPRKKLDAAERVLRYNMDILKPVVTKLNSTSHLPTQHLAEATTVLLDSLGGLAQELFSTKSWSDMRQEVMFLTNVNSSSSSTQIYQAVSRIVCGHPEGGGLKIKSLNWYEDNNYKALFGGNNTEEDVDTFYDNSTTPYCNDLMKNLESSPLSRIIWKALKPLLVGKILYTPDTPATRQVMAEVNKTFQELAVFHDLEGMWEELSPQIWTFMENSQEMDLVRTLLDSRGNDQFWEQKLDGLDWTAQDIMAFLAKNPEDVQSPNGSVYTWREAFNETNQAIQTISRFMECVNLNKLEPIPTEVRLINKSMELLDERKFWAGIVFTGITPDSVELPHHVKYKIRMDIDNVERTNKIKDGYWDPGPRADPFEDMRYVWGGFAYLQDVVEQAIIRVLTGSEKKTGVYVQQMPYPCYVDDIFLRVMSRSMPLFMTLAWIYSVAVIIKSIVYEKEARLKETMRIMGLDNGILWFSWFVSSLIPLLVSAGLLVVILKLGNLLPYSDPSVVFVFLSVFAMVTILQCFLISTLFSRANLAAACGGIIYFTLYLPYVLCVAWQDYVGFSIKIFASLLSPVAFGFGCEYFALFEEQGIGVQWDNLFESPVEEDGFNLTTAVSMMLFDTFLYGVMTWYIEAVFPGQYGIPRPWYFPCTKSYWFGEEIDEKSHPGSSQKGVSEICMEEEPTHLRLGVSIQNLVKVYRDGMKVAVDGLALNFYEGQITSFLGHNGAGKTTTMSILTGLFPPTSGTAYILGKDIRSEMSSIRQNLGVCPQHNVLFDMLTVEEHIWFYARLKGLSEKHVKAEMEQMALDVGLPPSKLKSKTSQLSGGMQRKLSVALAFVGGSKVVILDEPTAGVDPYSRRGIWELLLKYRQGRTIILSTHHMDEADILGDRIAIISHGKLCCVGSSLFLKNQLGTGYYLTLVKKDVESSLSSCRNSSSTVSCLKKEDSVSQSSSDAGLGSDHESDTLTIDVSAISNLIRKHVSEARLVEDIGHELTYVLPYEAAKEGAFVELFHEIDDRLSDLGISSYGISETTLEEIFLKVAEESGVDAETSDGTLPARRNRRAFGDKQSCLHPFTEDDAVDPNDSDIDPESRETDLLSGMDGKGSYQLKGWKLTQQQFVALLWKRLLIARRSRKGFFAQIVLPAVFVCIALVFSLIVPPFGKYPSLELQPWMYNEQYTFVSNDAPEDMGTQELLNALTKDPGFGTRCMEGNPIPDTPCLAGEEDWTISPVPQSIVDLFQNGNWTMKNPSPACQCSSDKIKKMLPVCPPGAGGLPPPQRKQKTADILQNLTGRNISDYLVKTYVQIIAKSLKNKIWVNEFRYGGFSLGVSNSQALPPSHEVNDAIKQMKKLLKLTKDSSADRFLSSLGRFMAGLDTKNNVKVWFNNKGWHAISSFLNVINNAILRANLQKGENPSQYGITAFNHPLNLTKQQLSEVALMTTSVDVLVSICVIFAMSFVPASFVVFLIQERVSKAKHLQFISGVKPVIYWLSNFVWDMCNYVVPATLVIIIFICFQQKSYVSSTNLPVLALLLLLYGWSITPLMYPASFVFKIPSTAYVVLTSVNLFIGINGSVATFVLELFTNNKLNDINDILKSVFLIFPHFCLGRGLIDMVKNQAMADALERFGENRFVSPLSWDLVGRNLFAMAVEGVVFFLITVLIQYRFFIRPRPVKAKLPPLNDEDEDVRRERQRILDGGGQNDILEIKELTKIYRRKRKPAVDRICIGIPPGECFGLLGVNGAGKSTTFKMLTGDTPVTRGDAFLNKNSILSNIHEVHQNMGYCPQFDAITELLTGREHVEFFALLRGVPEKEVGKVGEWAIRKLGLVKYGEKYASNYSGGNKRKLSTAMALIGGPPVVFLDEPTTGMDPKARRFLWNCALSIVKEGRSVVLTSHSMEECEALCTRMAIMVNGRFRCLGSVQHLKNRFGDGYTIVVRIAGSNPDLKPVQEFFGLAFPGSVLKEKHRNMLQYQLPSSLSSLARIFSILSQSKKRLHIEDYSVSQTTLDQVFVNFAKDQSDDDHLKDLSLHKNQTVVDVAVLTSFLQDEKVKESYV
# Procedure: (§2) Calpain-catalyzed proteolysis of metabolically labeled ABCA1: Transiently transfected 293 cells were pulse-labeled by [^35S]methionine (0.5 mCi/ml) in 0.2% BSA and DMEM for 2 hours. Cells were washed three times with fresh media and placed on ice for 10 minutes. Then cells were permeabilized by addition of 80 μg/ml digitonin in DMEM and incubated on ice for 15 minutes. Next, the cells were washed twice with fresh DMEM, and then purified μ-calpain in DMEM plus 2 mM CaCl2 was added at the indicated concentration and incubated for 20 minutes at room temperature. Then cells were lysed by addition of 1 ml RIPA buffer with 40 μg/ml calpeptin. FLAG-tagged ABCA1 was immunoprecipitated by anti-FLAG agarose beads and subjected to quantitative analysis by PhosphorImager.
# ABCA1 protein [5] = test: ABCA1 protein level in mouse peritoneal macrophages (Western); assay type: cell-based; details: cultured cells, short-term incubations, data not shown
# ABCA1 protein [6] = test: ABCA1 protein level in primary mouse hepatocytes (Western); assay type: cell-based; details: apoA-I 10 μg/ml 3 hours
# Procedure: as §1, with “peroxidase. […]” for “peroxidase.”
# ABCA1 [7] = biological target: T1, ABCA1; test: Apolipoprotein A-I infusion in mice, ABCA1 in liver and peritoneal macrophages; assay type: in vivo; set-up: from tissue; host or cells: mouse liver and peritoneal macrophages
# Procedure: […] Mice were anesthetized intraperitoneally with 0.1 ml/30 g body weight of a solution containing 100 mg/ml ketamine and 30 mg/ml xylazine. ApoA-I (20 mg/kg body weight) or BSA as control was administered via femoral vein as a bolus injection. Four hours after injection, animals were euthanized and the liver was dissected out for analysis.
# calpain protease = test: Degradation of a fluorescent calpain protease substrate in cells; assay type: cell-based; details: data not shown
# ABCA1 [8] = biological target: T2, ABCA1 (Mus musculus, UniProt P41233, DEL1283-1306); test: Calpain-catalyzed proteolysis of metabolically labeled ABCA1 in digitonin-permeabilized 293 cells; assay type: cell-based; details: permeabilized 293 cells, purified μ-calpain
# T2 construct: expressed in transfected cells; host or cells: 293 cells, digitonin-permeabilized
# T2 sequence (P41233 with tags, fused parts or gaps DEL1283-1306): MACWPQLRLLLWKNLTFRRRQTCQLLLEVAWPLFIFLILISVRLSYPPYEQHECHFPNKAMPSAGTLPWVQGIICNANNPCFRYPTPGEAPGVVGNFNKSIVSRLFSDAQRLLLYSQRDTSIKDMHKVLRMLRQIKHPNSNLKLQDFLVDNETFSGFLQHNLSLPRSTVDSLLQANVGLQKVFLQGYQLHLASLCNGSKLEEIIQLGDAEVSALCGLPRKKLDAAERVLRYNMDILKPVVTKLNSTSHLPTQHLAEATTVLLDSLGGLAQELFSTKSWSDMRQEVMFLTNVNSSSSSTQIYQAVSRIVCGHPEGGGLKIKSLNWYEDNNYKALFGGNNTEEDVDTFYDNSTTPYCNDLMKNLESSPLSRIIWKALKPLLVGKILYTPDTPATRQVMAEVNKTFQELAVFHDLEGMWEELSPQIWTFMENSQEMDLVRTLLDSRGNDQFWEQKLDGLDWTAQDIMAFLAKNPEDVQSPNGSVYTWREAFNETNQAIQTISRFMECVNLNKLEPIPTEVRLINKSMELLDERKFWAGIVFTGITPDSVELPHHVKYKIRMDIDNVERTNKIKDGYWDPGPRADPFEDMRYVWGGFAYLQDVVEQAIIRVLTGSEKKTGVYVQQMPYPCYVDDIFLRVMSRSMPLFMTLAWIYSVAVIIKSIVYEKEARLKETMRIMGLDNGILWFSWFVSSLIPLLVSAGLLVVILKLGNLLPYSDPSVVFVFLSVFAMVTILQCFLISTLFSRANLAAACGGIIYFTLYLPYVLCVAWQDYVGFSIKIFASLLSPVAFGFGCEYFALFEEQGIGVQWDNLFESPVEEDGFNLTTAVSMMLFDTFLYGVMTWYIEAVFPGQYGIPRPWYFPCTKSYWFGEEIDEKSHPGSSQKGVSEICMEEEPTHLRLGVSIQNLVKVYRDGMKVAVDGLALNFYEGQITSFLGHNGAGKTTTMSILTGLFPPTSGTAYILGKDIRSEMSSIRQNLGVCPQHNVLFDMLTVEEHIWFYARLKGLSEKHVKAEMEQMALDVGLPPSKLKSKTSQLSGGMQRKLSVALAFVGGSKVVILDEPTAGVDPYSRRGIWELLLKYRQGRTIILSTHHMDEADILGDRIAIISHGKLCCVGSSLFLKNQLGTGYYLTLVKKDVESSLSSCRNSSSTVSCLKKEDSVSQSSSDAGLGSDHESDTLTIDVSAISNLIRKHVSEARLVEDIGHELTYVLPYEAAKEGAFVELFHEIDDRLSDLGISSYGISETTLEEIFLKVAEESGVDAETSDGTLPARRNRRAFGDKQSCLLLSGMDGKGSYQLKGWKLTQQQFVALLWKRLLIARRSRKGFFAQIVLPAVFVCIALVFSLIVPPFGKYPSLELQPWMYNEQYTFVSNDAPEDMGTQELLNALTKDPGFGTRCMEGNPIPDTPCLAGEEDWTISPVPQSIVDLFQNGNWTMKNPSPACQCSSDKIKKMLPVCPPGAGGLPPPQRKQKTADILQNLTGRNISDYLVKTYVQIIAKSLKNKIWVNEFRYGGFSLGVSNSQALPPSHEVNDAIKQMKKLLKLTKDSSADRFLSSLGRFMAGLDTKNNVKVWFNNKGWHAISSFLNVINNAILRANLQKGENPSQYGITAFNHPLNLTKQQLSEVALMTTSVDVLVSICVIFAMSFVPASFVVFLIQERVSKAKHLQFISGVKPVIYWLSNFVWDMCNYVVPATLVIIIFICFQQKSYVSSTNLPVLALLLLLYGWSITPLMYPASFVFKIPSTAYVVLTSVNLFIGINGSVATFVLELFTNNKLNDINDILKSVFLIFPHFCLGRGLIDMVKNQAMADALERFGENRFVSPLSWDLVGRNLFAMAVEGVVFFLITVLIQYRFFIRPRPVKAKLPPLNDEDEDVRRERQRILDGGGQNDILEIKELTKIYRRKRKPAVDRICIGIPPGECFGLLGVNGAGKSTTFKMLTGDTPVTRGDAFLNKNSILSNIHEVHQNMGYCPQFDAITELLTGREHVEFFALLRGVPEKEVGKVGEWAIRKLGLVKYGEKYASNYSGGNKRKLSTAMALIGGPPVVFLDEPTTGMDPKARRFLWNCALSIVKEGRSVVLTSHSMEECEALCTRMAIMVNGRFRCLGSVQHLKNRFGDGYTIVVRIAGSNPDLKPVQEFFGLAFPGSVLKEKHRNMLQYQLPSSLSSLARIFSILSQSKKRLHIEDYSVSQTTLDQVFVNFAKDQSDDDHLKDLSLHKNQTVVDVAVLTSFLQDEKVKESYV
# Procedure: as §2
# [9] = 293 cells, lactacystin 20 μM for 3 h
# [10] = 293 cells, apoA-I 10 μg/ml 3 hours
# [11] = time-course study of apoA-I infusion
molecule,measurement,setting,value
methy-β-cyclodextrin,"ABCA1 protein level, effect in words",ABCA1 protein [1],no effect
"O=c1cc(-c2ccc(O)cc2)oc2cc(O)cc(O)c12 [apigenin, reference compound]","ABCA1 protein level, effect in words",ABCA1 protein [1],increase
same,phosphorylation of ABCA1,ABCA1 phosphorylation,decrease
C=C1[C@@H](O)[C@@H]2O[C@]3(CC[C@H](/C=C/[C@@H](C)[C@@H]4CC(C)=C[C@@]5(O[C@H](C[C@@](C)(O)C(=O)O)CC[C@H]5O)O4)O3)CC[C@H]2O[C@@H]1[C@@H](O)C[C@H](C)[C@H]1O[C@@]2(CCCCO2)CC[C@H]1C [okadaic acid],ability of apoA-I to increase ABCA1 protein levels,ABCA1 protein [1]; macrophages,abolished
CC(=O)N[C@@H](CSC(=O)[C@]1([C@@H](O)C(C)C)NC(=O)[C@H](C)[C@@H]1O)C(=O)O [lactacystin],ABCA1 level,"ABCA1 protein [1]; acetyl-LDL-loaded, LXR/RXR-activated macrophages, data not shown",increased
same,ABCA1 level,ABCA1 [2],increased
same,accumulation of total and cell surface ubiquitinated ABCA1,ABCA1 protein [3]; [9],increase in the accumulation
same,increase in total ABCA1 levels,ABCA1 protein [3]; [9],2.2 fold
same,increase in cell surface ABCA1 levels,"ABCA1 protein [3]; 293 cells, lactacystin, data not shown",2.2 fold
"apoA-I: Human apoA-I (BIODESIGN International), dialyzed against PBS; apolipoprotein ligand of ABCA1",ability of calpain to mediate proteolysis of ABCA1 after pre-treatment,ABCA1 [4]; apoA-I 10 μg/ml for 3 hours prior to permeabilization,abolished
same,cell surface expression of ABCA1,"ABCA1 protein [1]; macrophages, 3 hours apoA-I, biotinylation",increased
same,"ABCA1 protein level, effect in words",ABCA1 protein [1],"rapid, marked increase"
same,effect on ABCA1 in primary macrophage cultures,ABCA1 protein [1],stabilization
same,ABCA1 mRNA,ABCA1 protein [5],did not change
same,cellular expression levels of ABCA1delPEST,ABCA1 protein [3]; [10],no effect
same,protein levels of Walker motif mutant ABCA1,ABCA1 protein [3]; [10],no increase
same,"ABCA1 protein level, effect in words","ABCA1 protein [3]; 293 cells, wild type ABCA1, apoA-I 10 μg/ml 3 hours","rapid, marked increase"
same,level of ABCA1-W590S mutant,"ABCA1 protein [3]; mutant binds apoA-I but does not mediate lipid efflux, data not shown",fails to increase
same,ubiquitination levels of ABCA1,"ABCA1 protein [3]; with or without proteasome inhibitors, data not shown",did not decrease
same,"ABCA1 protein level, effect in words",ABCA1 protein [6],"rapid, marked increase"
same,phosphorylation of ABCA1,ABCA1 phosphorylation,time- and dose-dependent reduction
same,ABCA1 protein in liver,"ABCA1 [7]; mice, intravenous apoA-I 20 mg/kg, 4 hours, chow-fed",induction
same,ABCA1 protein in peritoneal macrophages,"ABCA1 [7]; mice, intravenous apoA-I, 4 hours, high-fat, high-cholesterol diet for 7 days",induction
same,ABCA1 mRNA levels in liver,"ABCA1 [7]; quantitative real-time PCR, data not shown",did not significantly alter
same,ABCA1 protein levels after 24 hours,ABCA1 [7]; [11],returned to base line
same,time for which the increase in ABCA1 was sustained,ABCA1 [7]; [11],8 h
same,degradation of fluorescent calpain protease substrate,calpain protease,no change
CCCC[C@@H](C=O)NC(=O)[C@H](CC(C)C)NC(=O)OCc1ccccc1 [calpeptin],"ABCA1 protein level, effect in words",ABCA1 protein [1],increased
same,ABCA1 mRNA,ABCA1 protein [5],without any change
same,effect of calpeptin on ABCA1delPEST (PEST sequence deleted),"ABCA1 protein [3]; 293 cells, calpeptin 30 μg/ml for 3 hours",abolished
same,mean increase in ABCA1 protein levels,"ABCA1 protein [3]; 293 cells, calpeptin 30 μg/ml for 3 hours, p<0.001",3.84±0.32 fold
same,"cell surface ABCA1, effect in words",ABCA1 protein [3]; calpeptin,marked increase
same,"ABCA1 protein level, effect in words",ABCA1 protein [6],increased
apoE: apoprotein ligand of ABCA1,effect on ABCA1 in primary macrophage cultures,ABCA1 protein [1],stabilization
B1,degradation of wild type ABCA1,"ABCA1 [4]; permeabilized 293 cells, purified μ-calpain",efficient degradation
same,degradation of ABCA1delPEST,ABCA1 [8],no appreciable degradation
